We go through two compounds from patent publication US20180070870A1, “Autonomous Sweat Extraction and Analysis Using a Fully-Integrated Wearable Platform” (The Board of Trustees of the Leland Stanford Junior …, priority 2016, published 2018).

This experiment has as its system sweat secretion. Put plainly: Induced sweat rate profiles stimulated by cholinergic agonist hydrogels under iontophoresis, measured with a sweat rate sensor. In kind it is in vivo, human. To be noted: iontophoresis 2 mA for 5 minutes. On the procedure:
Bars represent values for response latency (time in seconds to onset of secretion from start of iontophoresis), response duration (total time in minutes of secretion above baseline, measurements stopped at 60 minutes), peak secretory rate in response to stimulation, time to reach peak secretory rate and time spent secreting at the peak rate. […] By modulating the formulation of the compounds that are loaded into the iontophoresis hydrogel, we can achieve different patterns of sweat secretion rate. We characterized the induced sweat rate profiles as stimulated by three different cholinergic agonist hydrogels (acetylcholine, methacholine and pilocarpine) each at two different concentrations. For this characterization step, 2 mA of current over duration of 5 minutes was applied using a pair of ring-shaped electrodes (WR Medical Electronics Co., MN, area: 4.3 cm2), with the sweat rate sensor (Q-sweat, WR Medical Electronics Co., MN) mounted on the positive electrode, sealing the stimulated area. […] This pattern is suitable for the case where periodic sweat sampling with short intervals is required. […] To retrieve the induced sweat rate information, immediately after each stimulation step, the stimulated area was wiped dry and sealed with the sweat rate sensor. After each characterization step, the same pair of hydrogels were reused for the subsequent stimulation. […]

`CC(=O)OC(C)C[N+](C)(C)C` (centres unmarked) [methacholine]: the “share of the secretion period spent at about the peak rate” value was “about half”.
Take `CC[C@@H]1C(=O)OC[C@@H]1Cc1cncn1C` [pilocarpine]: the “share of the secretion period spent at about the peak rate” value is “about half”.
